Results as given in patent US20130225614A1, “4-AZOLYLAMINOQUINAZOLINE DERIVATIVES AND METHODS OF USE THEREOF” (Ambit Biosciences Corporation, priority 2010, published 2013).

What was measured:
[1] = system: GM-CSFR/JAK2/STAT5 pathway; assay: CSTF-1 cell-based reporter assay (beta-lactamase reporter, GM-CSF stimulated); conditions: Homo sapiens; csTF-1 cells, GM-CSF at 2 ng/mL, 4 hours; read-out: Cell Assay: CS TF-1 reporter assay IC50
Procedure: CSTF-1 cells are derived from the human erythroleukemia cell line that is growth dependent on GM-CSF and has an intact GM-CSFR/JAK2/STAT5 pathway. The cell line contains stably integrated beta-lactamase reporter gene under the control of the […] (irf 1) response element recognized by the activated transcription factor STATS. csTF-1 cells (Invitrogen K1219) were washed with assay media (97% OPTIMEM/0.5% dialyzed FBS/0.1 mM NEAA/1 mM Na pyr/P/S) and seeded in the same media at 5×10^5 cell/mL in T150 flask. After 16 hour incubation, cells were seeded at 2×10^5 cell/well in 50 μl volume, into Costar, clear bottom, 96-well assay plates. Serial dilutions of compounds were added to the plates with final DMSO concentration at 0.5% and GM-CSF at 2 ng/mL and the plates were then incubated at […] and 5% CO2 for 4 hours. The plates were brought to room temperature before adding Substrate Mixture according to manufacturer's protocol (Invitrogen, Catalog #K1085). The assay plates containing the substrate mixture were incubated in the dark at room temperature for 2 hours. Blue and green fluorescence was measured with excitation at 409 nm and emission at 460 nm (for blue) and excitation at 409 nm and emission at 530 nm (for green) using Spectra Max Gemini EM.

[2] = system: distinct kinases tested excluding mutant variants, typically 359 or 386 kinases; assay: Kinase selectivity in competition binding assays (S10 score; kinases within 100-fold of JAK2 Kd); conditions: compound at 10 μM; fraction of kinases with inhibition of 90% or greater
Procedure: (§1) Competition binding assays used herein were developed, validated and performed as described in Fabian et al., Nature Biotechnology 2005, 23, 329-336. Kinases were produced as fusions to T7 phage (See, Fabian et al. or WO04/015142) or alternatively, the kinases were expressed in HEK-293 cells and subsequently tagged with DNA for PCR detection (See, WO08/005,310). For the binding assays, streptavidin-coated magnetic beads were treated with biotinylated affinity ligands for 30 min at rt to generate affinity resins. The liganded beads were blocked with excess biotin and washed with blocking buffer (SeaBlock (Pierce), 1% BSA, 0.05% Tween 20, 1 mM DTT) to remove unbound ligand and to reduce non-specific binding. Binding reactions were assembled by combining kinase, liganded affinity beads, and test compounds in 1× binding buffer (20% SeaBlock, 0.17×PBS, 0.05% Tween 20, 6 mM DTT). Test compounds were prepared as 100× stocks in DMSO and rapidly diluted into the aqueous environment. DMSO was added to control assays lacking a test compound. Primary screen interactions were performed in polypropylene 384-well plates in a final volume of 34 μL, while Kd determinations were performed in polystyrene 96-well plates in a final volume of 135 μL. The assay plates were incubated at room temperature with shaking for 1 hour, long enough for binding reactions to reach equilibrium, and the affinity beads were washed extensively with wash buffer (1×PBS, 0.05% Tween 20) to remove unbound protein. The beads were then resuspended in elution buffer (1×PBS, 0.05% Tween 20, 2 μM non-biotinylated affinity ligand) and incubated at room temperature with shaking for 30 min. The kinase concentration in the eluates was measured by quantitative PCR. Each kinase was tested individually against each compound. Kds were determined using eleven serial threefold dilutions. A selectivity score, which is a quantitative measure of selectivity of a compound against a panel of enzymes, may be calculated for a compound by dividing the number of enzymes for which a compound meets a set criteria, (for example, a binding constant of 100 nM or less), by the total number of enzymes tested.
In certain embodiments, the compounds provided herein bind to JAK2 kinase with higher specificity as compared to non-mutant and non-JAK family kinases. For certain compounds provided herein, binding constants for less than 10 non-mutant and non-JAK family kinases are within 100-fold of the binding constant for JAK2 kinase for compounds provided herein. For certain compounds provided herein, binding constants for less than 8 non-mutant and non-JAK family kinases are within 100-fold of the binding constant for JAK2 kinase for compounds provided herein. […]

JAK3 = biological target: T1, JAK3 (Homo sapiens, UniProt P52333); assay: Competition binding assay, Kd against JAK3
T1 construct: made in house; host or cells: T7 phage display or HEK-293 cells (alternatives; not specified per kinase)
T1 sequence (P52333 1-1124): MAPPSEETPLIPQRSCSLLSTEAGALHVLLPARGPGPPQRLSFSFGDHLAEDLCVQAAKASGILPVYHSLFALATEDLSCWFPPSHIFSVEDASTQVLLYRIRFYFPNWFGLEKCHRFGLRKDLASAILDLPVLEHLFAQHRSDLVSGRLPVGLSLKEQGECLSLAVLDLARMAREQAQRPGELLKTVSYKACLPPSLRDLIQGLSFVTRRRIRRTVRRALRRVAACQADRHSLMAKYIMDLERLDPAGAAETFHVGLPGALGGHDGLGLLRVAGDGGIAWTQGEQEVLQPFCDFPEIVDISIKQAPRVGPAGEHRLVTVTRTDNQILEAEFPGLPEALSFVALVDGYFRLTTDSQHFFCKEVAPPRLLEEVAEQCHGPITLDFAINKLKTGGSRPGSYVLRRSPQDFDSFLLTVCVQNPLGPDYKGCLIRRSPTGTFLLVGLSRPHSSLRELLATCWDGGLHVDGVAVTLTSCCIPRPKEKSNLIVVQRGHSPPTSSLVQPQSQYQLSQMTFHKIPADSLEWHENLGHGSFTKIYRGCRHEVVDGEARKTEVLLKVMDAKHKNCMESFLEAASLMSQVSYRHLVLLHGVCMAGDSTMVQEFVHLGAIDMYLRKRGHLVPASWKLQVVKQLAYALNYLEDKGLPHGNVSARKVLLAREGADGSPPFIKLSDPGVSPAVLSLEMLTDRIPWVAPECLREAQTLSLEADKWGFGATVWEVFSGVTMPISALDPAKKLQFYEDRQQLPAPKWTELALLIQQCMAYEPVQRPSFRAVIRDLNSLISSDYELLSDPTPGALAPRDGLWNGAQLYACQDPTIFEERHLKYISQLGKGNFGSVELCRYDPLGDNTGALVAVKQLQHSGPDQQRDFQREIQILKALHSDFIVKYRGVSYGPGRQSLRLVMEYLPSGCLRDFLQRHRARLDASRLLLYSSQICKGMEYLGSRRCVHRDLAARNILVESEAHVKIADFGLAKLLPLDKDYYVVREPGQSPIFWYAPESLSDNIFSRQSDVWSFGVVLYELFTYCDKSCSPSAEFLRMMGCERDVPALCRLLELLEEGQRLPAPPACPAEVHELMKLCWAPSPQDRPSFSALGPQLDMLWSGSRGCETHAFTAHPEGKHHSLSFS
Procedure: as §1

JAK2 = biological target: T2, JAK2 (Homo sapiens, UniProt O60674); assay: Competition binding assay, Kd against JAK2
T2 construct: made in house; host or cells: T7 phage display or HEK-293 cells (alternatives; not specified per kinase)
Procedure: as §1

T2 sequence (O60674 whole entry): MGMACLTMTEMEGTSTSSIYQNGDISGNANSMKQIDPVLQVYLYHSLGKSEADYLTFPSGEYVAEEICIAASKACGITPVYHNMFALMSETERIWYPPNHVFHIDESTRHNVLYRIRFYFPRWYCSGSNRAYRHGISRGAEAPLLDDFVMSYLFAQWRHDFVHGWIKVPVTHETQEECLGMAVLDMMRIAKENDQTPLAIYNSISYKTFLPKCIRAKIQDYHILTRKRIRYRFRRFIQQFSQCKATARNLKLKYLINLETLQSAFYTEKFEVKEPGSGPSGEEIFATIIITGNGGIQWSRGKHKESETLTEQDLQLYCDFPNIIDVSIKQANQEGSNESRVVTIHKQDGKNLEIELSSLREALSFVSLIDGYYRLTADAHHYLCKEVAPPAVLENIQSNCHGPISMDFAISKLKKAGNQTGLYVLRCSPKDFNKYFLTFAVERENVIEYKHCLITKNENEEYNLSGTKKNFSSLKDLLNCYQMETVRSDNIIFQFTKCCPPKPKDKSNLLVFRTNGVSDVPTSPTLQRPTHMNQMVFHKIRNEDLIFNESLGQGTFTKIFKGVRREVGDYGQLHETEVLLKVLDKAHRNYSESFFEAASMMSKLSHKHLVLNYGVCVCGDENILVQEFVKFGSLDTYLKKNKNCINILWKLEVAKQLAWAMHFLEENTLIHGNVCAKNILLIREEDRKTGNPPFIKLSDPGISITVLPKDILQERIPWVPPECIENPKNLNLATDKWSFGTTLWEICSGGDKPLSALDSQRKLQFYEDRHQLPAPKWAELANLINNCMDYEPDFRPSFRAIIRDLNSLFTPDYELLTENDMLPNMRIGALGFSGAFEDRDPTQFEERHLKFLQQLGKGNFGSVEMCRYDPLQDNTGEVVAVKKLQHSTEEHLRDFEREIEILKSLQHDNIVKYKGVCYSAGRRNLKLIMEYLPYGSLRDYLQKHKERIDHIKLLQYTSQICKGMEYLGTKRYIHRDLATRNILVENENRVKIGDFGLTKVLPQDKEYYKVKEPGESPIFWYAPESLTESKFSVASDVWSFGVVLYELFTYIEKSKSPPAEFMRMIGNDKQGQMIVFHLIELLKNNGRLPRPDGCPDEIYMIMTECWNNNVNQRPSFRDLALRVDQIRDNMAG

Compound	IC50 [1] [nM]	S-Score: S(10) at 10 μM [2]	Kd (JAK3) [nM]	Kd (JAK2) [nM]
OC(c1ccc(F)cc1)c1nc(Nc2c[nH]cn2)c2ccccc2n1 (racemic) [Example 3, (R,S)-(4-(1H-imidazol-4-ylamino)quinazolin-2-yl)(4-fluorophenyl)methanol]	> 500	A (A ≦ 0.3)	> 100	10 to 50
Cc1cnc(Nc2nc(C(O)c3ccc(F)cc3)nc3ccccc23)s1 (racemic) [Example 5, (R,S)-(4-fluorophenyl)(4-(5-methylthiazol-2-ylamino)quinazolin-2-yl)methanol]	> 500	A (A ≦ 0.3)	> 100	≤ 10
Cn1cnc(Nc2nc(C(O)c3ccc(F)cc3)nc3ccccc23)c1 (racemic) [Example 2, (R,S)-(4-fluorophenyl)(4-(1-methyl-1H-imidazol-4-ylamino)quinazolin-2-yl)methanol]	100 to 500	A (A ≦ 0.3)	10 to 100	≤ 10
OC(c1ccc(F)cc1)c1nc(Nc2cscn2)c2ccccc2n1 (racemic) [Example 4, (R,S)-(4-fluorophenyl)(4-(thiazol-4-ylamino)quinazolin-2-yl)methanol]	> 500	A (A ≦ 0.3)	> 100	10 to 50
